{"source": "paper PMC5090206", "about": "“Fluselenamyl: A Novel Benzoselenazole Derivative for PET Detection of Amyloid Plaques (Aβ) in Alzheimer’s Disease” (Scientific Reports, 2016)", "key": {"AD homogenates": {"target": "AD homogenates (Homo sapiens, UniProt P05067)", "sequence (P05067 672-711 limits assumed)": "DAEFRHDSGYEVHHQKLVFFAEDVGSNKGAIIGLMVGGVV", "test": "Saturation binding of [18F]-9 with AD homogenates", "protocol": "For assessing the ability of [^18F]-9 to bind Aβ plaques; binding assays with either AD homogenates or preformed Aβ1–42 aggregates were performed in 30 mM Tris, pH 7.4 buffer supplemented with 0.1% BSA[39]. Nonspecific binding was determined in the presence of 5 (1 μM) as a competitor.\nScientific Reports Version of August 4, 2016 other neurodegenerative diseases (SI, Figure 4A & 4B). Sections were visualized, processed, and analyzed using a Pascal confocal microscope.\nPreparation of Human Brain Homogenates.\nWell-established literature procedures were used for preparation of AD homogenates. 11,12 Grey matter was isolated from frozen postmortem frontal cortex tissue by dissection with a scalpel. […]\nBinding assays were performed using previously described methods.11 Briefly, a fixed concentration (0.25 µM/well) of Aβ1–42 fibrils was incubated for 1 h at 37 °C with increasing concentrations of [18F]-9 (0.1 nM-15 nM) in 30 mM Tris-HCl pH 7.4, 0.1% BSA in a reaction volume of 150 µl. […] The exact hot:cold ([18F]-9 : 5) ratio was measured in each experiment by counting an aliquot of a sample (2 µl) of the radioligand preparation in a scintillation counter. Binding of [18F]-9 to human brain homogenates was assessed by incubating samples of insoluble fraction (1.25 µg insoluble protein/well) from AD subjects, with increasing concentrations of [18F]-9 (0.1nM-18 nM) for 1 h at 37 °C. Nonspecific binding was determined in parallel experiments in the presence of 5 (1 µM) as a competitor. […] Glass fiber filters containing the bound ligand were mixed with Optiphase Supermix scintillation cocktail (150µl; PerkinElmer) and counted immediately.\nAll data were obtained in triplicate and analyzed by curve fitting to a one-site binding model using nonlinear regression employing Graphpad Prism software (version 4.0) to determine Kd and Bmax values.\nBmax values were calculated in pmol/gram wet weight of brain tissue. […]"}, "[1]": {"test": "Human serum stability by radio-HPLC", "assay_type": "in vitro ADME", "conditions": "37 °C", "description": "For biomedical imaging applications, the signal is a net function of target/background ratio. In PET imaging, this signal results from detection of γ-photons arising from annihilation events of positrons and imaging resolution is also dependent upon energy associated with a given radionuclide. Resultant radioactive metabolites could also contribute to nonspecific binding or compete with the parental tracer for binding to the target. Therefore, it is also important to investigate metabolic stability of the radiotracer to explicitly confirm whether or not biochemical targeting profiles of a given tracer are driven by a parental molecular imaging probe. […]\nBinding assays were performed using previously described methods.11 Briefly, a fixed concentration (0.25 µM/well) of Aβ1–42 fibrils was incubated for 1 h at 37 °C with increasing concentrations of [18F]-9 (0.1 nM-15 nM) in 30 mM Tris-HCl pH 7.4, 0.1% BSA in a reaction volume of 150 µl. […] The exact hot:cold ([18F]-9 : 5) ratio was measured in each experiment by counting an aliquot of a sample (2 µl) of the radioligand preparation in a scintillation counter. Binding of [18F]-9 to human brain homogenates was assessed by incubating samples of insoluble fraction (1.25 µg insoluble protein/well) from AD subjects, with increasing concentrations of [18F]-9 (0.1nM-18 nM) for 1 h at 37 °C. […]"}}, "data": [{"compound": "CN(C)c1ncc(/C=C\\c2nc3cc(OCC[18F])ccc3[se]2)cn1", "note": "[[^18F]-9]", "values": [{"measurement": "Bmax", "setting": "AD homogenates", "result": 546, "unit": "pmol/g wet wt."}, {"measurement": "binding affinity higher than approved FDA tracers", "setting": "AD homogenates", "result": "2–10 fold"}, {"measurement": "Kd", "setting": "AD homogenates; 30 mM Tris pH 7.4, 0.1% BSA, one-site model", "result": 1.7, "unit": "nM"}, {"measurement": "presence of parental tracer (single radio-peak) in human serum", "setting": "[1]", "result": "up to 3 h"}, {"measurement": "presence of parental tracer (single radio-peak) in human serum", "setting": "[1]; listed as 18F-9", "result": 3, "unit": "h"}]}]}
